Results: the supplement of paper PMC13380429

Assays:
Conditions in all cases: 72 h
[1] = test system: Calu-3; assay: cell viability relative to DMSO; higher = less toxic
[2] = test system: Caco-2; assay: as above
[3] = test system: U2OS; assay: as above
[4] = test system: HepG2; assay: as above
[5] = test system: Calu-3; assay: drug sensitivity score (DSS) for viability; higher = more toxic; extreme values may be limits of the assay
[6] = test system: Caco-2; assay: as above
[7] = test system: U2OS; assay: as above
[8] = test system: HepG2; assay: as above
[9] = test system: Calu-3; assay: relative viability EC50 (midpoint between 100% and the lowest measured viability); higher = less toxic
[10] = test system: Caco-2; assay: as above
[11] = test system: U2OS; assay: as above
[12] = test system: HepG2; assay: as above
[13] = test system: Vero E6; assay: drug sensitivity score (DSS) for viability; higher = more toxic; extreme values may be limits of the assay
[14] = test system: Vero E6; assay: cell viability relative to DMSO; higher = less toxic

SMILES | cell viability ([1]; 1 nM) [%] | cell viability ([1]; 10 nM) [%] | cell viability ([1]; 100 nM) [%] | cell viability ([1]; 1000 nM) [%] | cell viability ([1]; 10000 nM) [%] | cell viability ([2]; 1 nM) [%] | cell viability ([2]; 10 nM) [%] | cell viability ([2]; 100 nM) [%] | cell viability ([2]; 1000 nM) [%] | cell viability ([2]; 10000 nM) [%] | cell viability ([3]; 1 nM) [%] | cell viability ([3]; 10 nM) [%] | cell viability ([3]; 100 nM) [%] | cell viability ([3]; 1000 nM) [%] | cell viability ([3]; 10000 nM) [%] | cell viability ([4]; 1 nM) [%] | cell viability ([4]; 10 nM) [%] | cell viability ([4]; 100 nM) [%] | cell viability ([4]; 1000 nM) [%] | cell viability ([4]; 10000 nM) [%] | drug sensitivity score [5] | drug sensitivity score [6] | drug sensitivity score [7] | drug sensitivity score [8] | relative viability EC50 [9] [µM] | relative viability EC50 [10] [µM] | relative viability EC50 [11] [µM] | relative viability EC50 [12] [µM] | drug sensitivity score [13] | cell viability ([14]; 1 nM) [%] | cell viability ([14]; 10 nM) [%] | cell viability ([14]; 100 nM) [%] | cell viability ([14]; 1000 nM) [%] | cell viability ([14]; 10000 nM) [%]
C=C(C)[C@H]1CN[C@H](C(=O)O)[C@H]1CC(=O)O [kainic-acid] | 93.4 | 88.2 | 93.5 | 90.3 | 98.3 | 97.5 | 95.7 | 96.7 | 104 | 96.8 | 99.7 | 99.4 | 101 | 99.8 | 95.6 | 106 | 105 | 110 | 102 | 93.7 | 0 | 0 | 0 | 0 | > 10 | > 10 | > 10 | > 10 |  |  |  |  |  | 
O=C(CCCl)NCc1ccccc1 [beclamide] |  |  |  |  |  |  |  |  |  |  |  |  |  |  |  |  |  |  |  |  | 0 |  | 0 | 0 |  |  |  |  | 0 |  |  |  |  | 
CN1[C@@H]2CC[C@H]1C[C@@H](OC(=O)[C@H](CO)c1ccccc1)C2 [hyoscyamine] | 103 | 91.6 | 99.9 | 97.2 | 99.4 | 103 | 99.8 | 95 | 94.2 | 89.6 | 98.9 | 101 | 97.8 | 101 | 99.9 | 111 | 98.2 | 106 | 89.3 | 104 | 0 | 0 | 0 | 0 | > 10 | > 10 | > 10 | > 10 |  |  |  |  |  | 
CO[C@H]1C[C@H](O[C@H]2[C@H](C)O[C@@H](O[C@@H]3/C(C)=C/C[C@@H]4C[C@@H](C[C@]5(C=C[C@H](C)[C@@H](C6CCCCC6)O5)O4)OC(=O)[C@@H]4C=C(C)[C@@H](O)[C@H]5OC/C(=C\C=C\[C@@H]3C)[C@]54O)C[C@@H]2OC)O[C@@H](C)[C@@H]1O [doramectin] | 102 | 95.4 | 105 | 93.8 | 75 | 102 | 92.9 | 93.9 | 96.8 | 62.5 | 98.1 | 95.7 | 92.6 | 88.5 | 56.6 | 112 | 104 | 98.1 | 108 | 44.9 | 1.8 | 2.3 | 3.7 | 2.5 | > 10 |  |  | 3.76 | 1.4 | 103 | 96.3 | 91.1 | 98.1 | 72.4
CC(C)(C)C1CCc2c(sc(NC(=O)c3ccco3)c2C(=O)O)C1 (stereo not given) [CaCCinh-A01] | 91.2 | 99.5 | 103 | 96.4 | 99.6 | 102 | 103 | 97.1 | 97.8 | 82.2 | 98.8 | 101 | 96.2 | 97.1 | 98 | 115 | 90.8 | 103 | 87.2 | 69.3 | 0 | 0.7 | 0 | 3 | > 10 | > 10 | > 10 |  | 1.3 | 98.8 | 98.8 | 106 | 98.5 | 72.9
CN(CC(=O)O)C(=N)N [creatine] |  |  |  |  |  |  |  |  |  |  |  |  |  |  |  |  |  |  |  |  | 0 |  | 0 | 0 |  |  |  |  |  |  |  |  |  | 
COc1ccncc1C(=O)NC(=O)Nc1ccc(-c2ccccc2)c(C(F)(F)F)c1 [S1P1-agonist-III] | 110 | 97.5 | 93.2 | 99.2 | 91.1 | 100 | 90.6 | 95.5 | 99.1 | 87.8 | 106 | 107 | 101 | 98.4 | 98.2 | 95.3 | 104 | 95.5 | 107 | 97.1 | 0 | 0 | 0 | 0 | > 10 | > 10 | > 10 | > 10 |  |  |  |  |  | 
OCc1ccccc1O[C@@H]1O[C@H](CO)[C@@H](O)[C@H](O)[C@H]1O [salicin] |  |  |  |  |  |  |  |  |  |  |  |  |  |  |  |  |  |  |  |  | 0 |  | 0 | 0 |  |  |  |  | 0 |  |  |  |  | 
Cc1cc(N2CCOCC2)ccc1Nc1nc(NC2CCCCC2)c2nc[nH]c2n1 | 100 | 98 | 98.6 | 98.4 | 85 | 102 | 104 | 101 | 88.5 | 69.4 | 97 | 104 | 101 | 68 | 55.4 | 99.1 | 107 | 98 | 51.8 | 43.5 | 0.4 | 2.9 | 6.1 | 9.1 | > 10 |  |  | 0.455 | 7.4 | 96.9 | 99.6 | 98.2 | 60.1 | 60.8
CN1CCN(c2cccc3[nH]c(=O)oc23)CC1 [pardoprunox] | 95.8 | 93.2 | 102 | 107 | 99.1 | 102 | 101 | 96.4 | 90.6 | 100 | 106 | 99.3 | 102 | 95.3 | 101 | 90.7 | 105 | 89.1 | 99.2 | 97.3 | 0 | 0 | 0 | 0 | > 10 | > 10 | > 10 | > 10 |  |  |  |  |  | 
NC(=O)[C@@H](CC1CC1)[C@@H](CCC(F)(F)F)C(=O)N[C@H]1N=C(c2ccccc2)c2cccc(F)c2NC1=O | 110 | 99.4 | 91.9 | 85.8 | 99.1 | 97.7 | 98.4 | 96.5 | 96.2 | 85.2 | 99 | 96.4 | 94.1 | 94.1 | 92.7 | 94.3 | 106 | 105 | 91.9 | 106 | 0 | 0.4 | 0 | 0 | > 10 | > 10 | > 10 | > 10 |  |  |  |  |  | 
CC[C@@H](C(N)=O)N1CCCC1=O [levetiracetam] | 87.4 | 91.8 | 98.6 | 103 | 103 | 96.2 | 91.6 | 100 | 95.2 | 101 | 103 | 98.2 | 101 | 97.2 | 103 | 93.2 | 105 | 90 | 104 | 92 | 0 | 0 | 0 | 0 | > 10 | > 10 | > 10 | > 10 |  |  |  |  |  | 
O=C(CCCN1CCC(O)(c2ccc(Br)cc2)CC1)c1ccc(F)cc1 [bromperidol] |  |  |  |  |  |  |  |  |  |  |  |  |  |  |  |  |  |  |  |  | 0 |  | 0 | 0.8 |  |  |  |  | 0 |  |  |  |  | 
Cc1c(N)nc([C@H](CC(N)=O)NC[C@H](N)C(N)=O)nc1C(=O)N[C@H](C(=O)N[C@H](C)[C@@H](O)[C@H](C)C(=O)N[C@H](C(=O)NCCc1nc(-c2nc(C(=O)NCCCNCCCCN)cs2)cs1)[C@@H](C)O)[C@@H](O[C@@H]1O[C@@H](CO)[C@@H](O)[C@H](O)[C@@H]1O[C@@H]1O[C@H](CO)[C@@H](O)[C@H](OC(N)=O)[C@@H]1O)c1cnc[nH]1 [bleomycetin] | 94 | 95.4 | 93.1 | 76.5 | 51.3 | 106 | 102 | 100 | 90.9 | 78.7 | 101 | 97.7 | 99.8 | 83.3 | 68.7 | 99.4 | 104 | 98.1 | 82.7 | 59.9 | 5.2 | 1.7 | 3.4 | 4 |  | > 10 |  |  | 3.9 | 106 | 103 | 106 | 82.4 | 64.2
CC(C)(C(=O)NCC(F)(F)C(F)(F)F)C(=O)N[C@@H]1C(=O)Nc2ccccc2-c2ccccc21 [RG4733] | 102 | 108 | 112 | 98.6 | 93.9 | 94.4 | 92.3 | 97.8 | 89.8 | 82.2 | 96.9 | 99.1 | 99.6 | 94.4 | 97.3 | 102 | 111 | 101 | 102 | 92.1 | 0 | 0.6 | 0 | 0 | > 10 | > 10 | > 10 | > 10 |  |  |  |  |  | 
Cc1ccc(-n2nc(C(C)(C)C)cc2NC(=O)NCc2cc(F)ccc2Oc2ccc3c(cnn3CCO)c2)cc1 [pexmetinib] | 100 | 85.9 | 93.2 | 95.8 | 91 | 100 | 93.2 | 91.4 | 84.3 | 81.4 | 96.8 | 90.8 | 97.1 | 80.9 | 54.3 | 96.9 | 109 | 104 | 90.7 | 0.1 | 0 | 2.1 | 4.5 | 7 | > 10 | > 10 |  | 2.4 | 1.4 | 97.6 | 100 | 91.2 | 104 | 64.7
CC(C)(O)c1coc(S(=O)(=O)NC(=O)Nc2c3c(cc4c2CCC4)CCC3)c1 [MCC950] | 120 | 105 | 100 | 103 | 99.3 | 106 | 96.1 | 102 | 96.9 | 104 | 104 | 103 | 105 | 97.7 | 102 | 97.9 | 95.9 | 102 | 113 | 105 | 0 | 0 | 0 | 0 | > 10 | > 10 | > 10 | > 10 |  |  |  |  |  | 
